Measured values taken from patent publication US20160176867A1, “MODIFIED BET-PROTEIN-INHIBITING DIHYDROQUINOXALINONES AND DIHYDROPYRIDOPYRAZINONES” (BAYER PHARMA AKTIENGESELLSCHAFT, priority 2013, published 2016).

Experiments:
[1] = target: T1, BRD4 bromo domain 1 [BRD4(1)] (Homo sapiens, UniProt O60885); experiment: BRD4/acetylated peptide H4 binding assay (TR-FRET), BRD4 bromo domain 1; details: inhibition of BRD4(1)/Ac-H4 peptide interaction
T1 construct: N-terminally His6-tagged BRD4(1) (amino acids 67-152); made in house; host or cells: E. coli
From the text: (§1) Protein-Protein Interaction Assay: BRD4/Acetylated Peptide H4 Binding Assay
To assess the BRD4(1) binding strength of the substances described in this application, the ability thereof to inhibit the interaction between BRD4(1) and acetylated histone H4 in a dose-dependent manner was quantified.
(§2) For this purpose, a time-resolved fluorescence resonance energy transfer (TR-FRET) assay was used, which measures the binding between N-terminally His6-tagged BRD4(1) (amino acids 67-152) and a synthetic acetylated histone H4 (Ac-H4) peptide with sequence GRGK(Ac)GGK(Ac)GLGK(Ac)GGAK(Ac)RHGSGSK-biotin. The recombinant BRD4(1) protein produced in-house according to Filippakopoulos et al., Nature, 2010, 468:1119-1123 and Cell, 2012, 149:214-231, was expressed in E. coli and purified by means of (Ni-NTA) affinity and (Sephadex G-75) size exclusion chromatography. The Ac-H4 peptide can be purchased, for example, from Biosyntan (Berlin, Germany).
(§3) In the assay, typically 11 different concentrations of each substance (0.1 nM, 0.33 nM, 1.1 nM, 3.8 nM, 13 nM, 44 nM, 0.15 μM, 0.51 μM, 1.7 μM, 5.9 μM and 20 μM) were analysed as duplicates on the same microtitre plate. For this purpose, 100-fold concentrated solutions in DMSO were prepared by serial dilutions (1:3.4) of a 2 mM stock solution into a clear, 384-well microtitre plate (Greiner Bio-One, Frickenhausen, Germany). From this, 50 nl were transferred into a black test plate (Greiner Bio-One, Frickenhausen, Germany). The test was started by the addition of 2 μl of a 2.5-fold concentrated BRD4(1) solution (final concentration typically 10 nM in the 5 μl of reaction volume) in aqueous assay buffer [50 mM HEPES pH 7.5, 50 mM sodium chloride (NaCl), 0.25 mM CHAPS and 0.05% serum albumin (BSA)] to the substances in the test plate. This was followed by a 10-minute incubation step at 22° C. for the pre-equilibration of putative complexes between BRD4(1) and the substances.
(§4) The mixture was then incubated in the dark at 22° C. for one hour and then at 4° C. for at least 3 hours and for no longer than overnight. The formation of BRD4(1)/Ac-H4 complexes was determined by the measurement of the resonance energy transfer from the streptavidin-Eu cryptate to the anti-6His-XL665 antibody present in the reaction. For this purpose, the fluorescence emission was measured at 620 nm and 665 nm after excitation at 330-350 nm in a TR-FRET measuring instrument, for example a Rubystar or Pherastar (both from BMG Lab Technologies, Offenburg, Germany) or a Viewlux (Perkin-Elmer). The ratio of the emissions at 665 nm and at 622 nm was taken as an indicator of the amount of BRD4(1)/Ac-H4 complexes formed.
(§5) The data (ratios) obtained were normalized, with 0% inhibition corresponding to the mean from the measurements for a set of controls (typically 32 data points) in which all the reagents were present. In these, in place of test substances, 50 nl of DMSO (100%) were used. Inhibition of 100% corresponded to the mean from the measurements for a set of controls (typically 32 data points) in which all the reagents except BRD4(1) were present. The IC50 was determined by regression analysis based on a 4-parameter equation (minimum, maximum, IC50, Hill; Y=max+(min−max)/(1+(X/IC50)Hill)).

[2] = target: T2, BRD4 bromo domain 2 [BRD4(2)] (Homo sapiens, UniProt O60885); experiment: BRD4/acetylated peptide H4 binding assay (TR-FRET), BRD4 bromo domain 2; details: inhibition of BRD4(2)/Ac-H4 peptide interaction
T2 construct: N-terminally His6-tagged BRD4(2) (amino acids 357-445); made in house; host or cells: E. coli
From the text: as §1
To assess the BRD4(2) binding strength of the substances described in this application, the ability thereof to inhibit the interaction between BRD4(2) and acetylated histone H4 in a dose-dependent manner was quantified.
as §2, with “BRD4(2)” for “BRD4(1)”, “357-445)” for “67-152)”, “SGRGK(Ac)GGK(Ac)GLGK(Ac)GGAK(Ac)RHRKVLRDNGSGSK-biotin.” for “GRGK(Ac)GGK(Ac)GLGK(Ac)GGAK(Ac)RHGSGSK-biotin.”
as §3, with “concentrated BRD4(2)” for “concentrated BRD4(1)”, “typically 100” for “typically 10”, “chloride (NaCl); 50 mM potassium fluoride (KF);” for “chloride (NaCl),”, “between BRD4(2)” for “between BRD4(1)”, “substances. Subsequently, 3 μl of a 1.67-fold concentrated solution (in assay buffer) consisting of Ac-H4 peptide (83.5 nM) and TR-FRET detection reagents [83.5 nM anti-6His-XL665 (Cisbio Bioassays, Codolet, France) and 12.52 nM streptavidin-Eu), (Perkin Elmer, #W1024)] in assay buffer were added.” for “substances.”
as §4, with “BRD4(2)/Ac-H4” for “BRD4(1)/Ac-H4”, “chelate” for “cryptate”
as §5, with “BRD4(2)” for “BRD4(1)”

Structure (SMILES) | IC50 [1] [nM] | IC50 [2] [nM]
C[C@H]1C(=O)N(C)c2ccc(Nc3cccc(S(=O)(=O)N[C@H]4CC[C@H](N5CCN(CC6CC6)CC5)CC4)c3)nc2N1C1CCOCC1 [Example 36, N-{trans-4-[4-(cyclopropylmethyl)-piperazin-1-yl]cyclohexyl}-3-{[(3S)-1,3-dimethyl-2-oxo-4-(tetrahydro-2H-pyran-4-yl)-1,2,3,4-tetrahydropyrido[2,3-b]pyrazin-6-yl]amino}-benzenesulphonamide] | 727 | 4230
COc1ccc(C(=O)NCCN(C)C)cc1Nc1ccc2c(n1)N(C1CCOCC1)[C@H](C)C(=O)N2C [Example 19, N-2-(Dimethylamino)ethyl-3-{[(3R)-1,3-dimethyl-2-oxo-4-(tetrahydro-2H-pyran-4-yl)-1,2,3,4-tetrahydropyrido[2,3-b]pyrazin-6-yl]amino}-4-methoxybenzamide] | 234 | 132
COc1ccc(C(=O)N2CCN(C)CC2)cc1Nc1ccc2c(n1)N(C1CCOCC1)[C@H](C)C(=O)N2C [Example 17, (3R)-6-({2-Methoxy-5-[(4-methylpiperazin-1-yl)carbonyl]phenyl}amino)-1,3-dimethyl-4-(tetrahydro-2H-pyran-4-yl)-3,4-dihydropyrido[2,3-b]pyrazin-2(1H)-one] | 129 | 60
C[C@@H]1C(=O)N(C)c2ccc(N(C)c3cccc(S(=O)(=O)N(C)C)c3)cc2N1C1CCN(C(=O)OC(C)(C)C)CC1 [Example 70, tert-butyl 4-[(2R)-7-{[3-(dimethylsulphamoyl)-phenyl](methyl)amino}-2,4-dimethyl-3-oxo-3,4-dihydroquinoxalin-1(2H)-yl]piperidine-1-carboxylate] | 749 | 384
CCN(CC)S(=O)(=O)c1cccc(Nc2ccc3c(n2)N(C2CCOCC2)[C@H](C)C(=O)N3C)c1 [Example 32, 3-{[(3R)-1,3-dimethyl-2-oxo-4-(tetrahydro-2H-pyran-4-yl)-1,2,3,4-tetrahydropyrido[2,3-b]pyrazin-6-yl]amino}-N,N-diethylbenzene-sulphonamide] | 22 | 39

Now from value to compound:

IC50 [1] [nM] | IC50 [2] [nM] | Structure (SMILES)
531 | 216 | COCCN1c2nc(Nc3cccc(C(=O)NC4CCN(C)CC4)c3)ccc2N(C)C(=O)C1C (racemic) [Example 98, 3-{[4-(2-methoxyethyl)-1,3-dimethyl-2-oxo-1,2,3,4-tetrahydropyrido[2,3-b]pyrazin-6-yl]amino}-N-(1-methylpiperidin-4-yl)benzamide]
151 | 157 | C[C@@H]1C(=O)N(C)c2ccc(Nc3cccc(C(=O)N4CCN(C)CC4)c3)nc2N1C1CCN(C(=O)OC(C)(C)C)CC1 [Example 78, tert-butyl 4-[(3R)-1,3-dimethyl-6-({3-[(4-methylpiperazin-1-yl)carbonyl]phenyl}-amino)-2-oxo-2,3-dihydropyrido[2,3-b]pyrazin-4(1H)-yl]piperidine-1-carboxylate]
489 | 434 | COCCN1c2nc(Nc3cccc(C(=O)N4CCN(C)CC4)c3)ccc2N(C)C(=O)[C@H]1C (stereo in doubt) [Example 117, (3R)-4-(2-methoxyethyl)-1,3-dimethyl-6-({3-[(4-methylpiperazin-1-yl)carbonyl]phenyl}amino)-3,4-dihydropyrido[2,3-b]pyrazin-2(1H)-one]
575 | 520 | C[C@@H]1C(=O)N(C)c2ccc(Nc3cccc(C(=O)N[C@H]4CC[C@H](N5CCN(CC6CC6)CC5)CC4)c3)cc2N1C1CCOCC1 [Example 108, N-{trans-4-[4-(cyclopropylmethyl)piperazin-1-yl]cyclohexyl}-3-{[(3R)-1,3-dimethyl-2-oxo-4-(tetrahydro-2H-pyran-4-yl)-1,2,3,4-tetrahydroquinoxalin-6-yl]amino}benzamide]
66 | 137 | C[C@@H]1C(=O)N(C)c2ccc(Nc3cccc(S(=O)(=O)NCCN(C)C)c3)nc2N1C1CCNCC1 [Example 128, N-[2-(dimethylamino)ethyl]-3-{[(3R)-1,3-dimethyl-2-oxo-4-(piperidin-4-yl)-1,2,3,4-tetrahydropyrido[2,3-b]pyrazin-6-yl]amino}-benzenesulphonamide]
551 | 274 | C[C@@H]1C(=O)N(C)c2ccc(Nc3cccc(C(=O)N[C@H]4CC[C@H](N5CCN(CC6CC6)CC5)CC4)c3)nc2N1C1CCCCC1 [Example 99, 3-{[(3R)-4-cyclohexyl-1,3-dimethyl-2-oxo-1,2,3,4-tetrahydropyrido[2,3-b]pyrazin-6-yl]amino}-N-{trans-4-[4-(cyclopropyl-methyl)piperazin-1-yl]cyclohexyl}benzamide]
521 | 1120 | C[C@@H]1C(=O)N(C)c2ccc(Nc3cccc(C(=O)NC4CCN(C)CC4)c3)cc2N1C1CCOCC1 [Example 109, 3-{[(3R)-1,3-dimethyl-2-oxo-4-(tetrahydro-2H-pyran-4-yl)-1,2,3,4-tetrahydroquinoxalin-6-yl]amino}-N-(1-methylpiperidin-4-yl)benzamide]
